Laboratory results from patent US9586931B2 (Merck Sharp & Dohme Corp., priority 2012, dated 2017).
Several values for one entry are separate records, joined by “and”; a condition that tells them apart may be missing. Equal values may be shown once.

molecular target: T1, recombinant human GST-Syk (Homo sapiens, UniProt P43405); test: Homogeneous Time-Resolved Fluorescence (HTRF) assay for the recombinant human Syk enzyme; type: biochemical; conditions: recombinant human GST-Syk 5 pM, ATP 25 μM, 10-dose titration 10 μM to 0.508 nM; read-out: rhSYK Activity IC50
T1 construct: purchased Carna Biosciences 08-176
Procedure, shortened: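 GST-hSyk fusion protein phosphorylated a peptide for 45 min at room temperature. The reaction was quenched with 2 nM Eu-anti-phosphotyrosine antibody and 70 nM SA-APC in 15 mM Tris pH 7.5, 40 mM EDTA, 0.01% Tween 20. The HTRF signal was read after 30 min.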

Row | SMILES | IC50
1 | Cc1cc(Nc2cc(C(F)(F)F)ccn2)nc(-c2cn(C[C@H]3CCC(=O)N3)nn2)c1 [Example 5.3, (5R)-5-{[4-(4-methyl-6-{[4-(trifluoromethyl)pyridin-2-yl]amino}pyridin-2-yl)-1H-1,2,3-triazol-1-yl]methyl}pyrrolidin-2-one] | 129 nM
2 | Cc1cc(Nc2cc(C(F)(F)F)ccn2)nc(-c2cn(C[C@H](O)CO)nn2)c1 [Example 5.7, (2S)-3-[4-(4-methyl-6-{[4-(trifluoromethyl)pyridin-2-yl]amino}pyridin-2-yl)-1H-1,2,3-triazol-1-yl]propane-1,2-diol] | 7.3 nM and 3.4 nM
3 | Cc1cc(Nc2nccc(OCCO)n2)cc(-c2cn(C[C@H](O)CO)nn2)c1 [Example 5.8, (2S)-3-[4-(3-{[4-(2-hydroxyethoxy)pyrimidin-2-yl]amino}-5-methylphenyl)-1H-1,2,3-triazol-1-yl]propane-1,2-diol] | 62 nM
4 | Cc1cc(Nc2cc(C(F)(F)F)ccn2)nc(-c2cn(CCC(=O)O)nn2)c1 [Example 5.9, 3-[4-(4-methyl-6-{[4-(trifluoromethyl)pyridin-2-yl]amino}pyridin-2-yl)-1H-1,2,3-triazol-1-yl]propanoic acid] | 38.1 nM
5 | COC(=O)CCn1cc(-c2cc(C)cc(Nc3cc(C(F)(F)F)ccn3)n2)nn1 [Example 5.10, methyl 3-[4-(4-methyl-6-{[4-(trifluoromethyl)pyridin-2-yl]amino}pyridin-2-yl)-1H-1,2,3-triazol-1-yl]propanoate] | 40.4 nM
6 | Cc1ccnc(Nc2cc(C)cc(-c3cn(C[C@@H](C)CO)nn3)n2)c1 [Example 5.15, (2R)-2-methyl-3-(4-{4-methyl-6-[(4-methylpyridin-2-yl)amino]pyridin-2-yl}-1H-1,2,3-triazol-1-yl)propan-1-ol] | 240 nM
7 | Cc1ccnc(Nc2cc(C)cc(-c3cn(C[C@H](C)CO)nn3)n2)c1 [Example 5.16, (2S)-2-methyl-3-(4-{4-methyl-6-[(4-methylpyridin-2-yl)amino]pyridin-2-yl}-1H-1,2,3-triazol-1-yl)propan-1-ol] | 235 nM
8 | Cc1ccnc(Nc2cc(C)cc(-c3cn(CCO)nn3)n2)c1 [Example 5.18, 2-(4-{4-methyl-6-[(4-methylpyridin-2-yl)amino]pyridin-2-yl}-1H-1,2,3-triazol-1-yl)ethanol] | 154 nM
9 | COCc1cc(Nc2nccc(C(F)(F)F)n2)cc(-c2cn(C[C@H](O)CO)nn2)c1 [Example 5.23, (2S)-3-{4-[3-(methoxymethyl)-5-{[4-(trifluoromethyl)pyrimidin-2-yl]amino}phenyl]-1H-1,2,3-triazol-1-yl}propane-1,2-diol] | 64.7 nM
10 | Cc1cc(Nc2cc(C(F)(F)F)ccn2)nc(-c2cn([C@H](C)C(=O)O)nn2)c1 [Example 5.29, (2R)-2-[4-(4-methyl-6-{[4-(trifluoromethyl)pyridin-2-yl]amino}pyridin-2-yl)-1H-1,2,3-triazol-1-yl]propanoic acid] | 166 nM
11 | Cc1cc(Nc2cc(C(F)(F)F)ccn2)nc(-c2cn([C@@H](C)C(=O)O)nn2)c1 [Example 5.30, (2S)-2-[4-(4-methyl-6-{[4-(trifluoromethyl)pyridin-2-yl]amino}pyridin-2-yl)-1H-1,2,3-triazol-1-yl]propanoic acid] | 39.8 nM
12 | CC/C=C/Cn1cc(-c2cc(C)cc(Nc3cc(C(F)(F)F)ccn3)n2)nn1 [Example 5.31, 4-methyl-6-{1-[(2E)-pent-2-en-1-yl]-1H-1,2,3-triazol-4-yl}-N-[4-(trifluoromethyl)pyridin-2-yl]pyridin-2-amine] | 48.6 nM
13 | Cc1cc(Nc2cc(C(F)(F)F)ccn2)nc(-c2cn(C/C=C/COc3ccccc3Cl)nn2)c1 [Example 5.32, 6-{1-[(2E)-4-(2-chlorophenoxy)but-2-en-1-yl]-1H-1,2,3-triazol-4-yl}-4-methyl-N-[4-(trifluoromethyl)pyridin-2-yl]pyridin-2-amine] | 752 nM
14 | Cc1cc(Nc2cc(C(F)(F)F)ccn2)nc(-c2cn(C/C=C/c3ccncc3)nn2)c1 [Example 5.33, 4-methyl-6-{1-[(2E)-3-pyridin-4-ylprop-2-en-1-yl]-1H-1,2,3-triazol-4-yl}-N-[4-(trifluoromethyl)pyridin-2-yl]pyridin-2-amine] | 58.5 nM
15 | CCOC(=O)/C=C/Cn1cc(-c2cc(C)cc(Nc3cc(C(F)(F)F)ccn3)n2)nn1 [Example 5.34, ethyl (2E)-4-[4-(4-methyl-6-{[4-(trifluoromethyl)pyridin-2-yl]amino}pyridin-2-yl)-1H-1,2,3-triazol-1-yl]but-2-enoate] | 171 nM
16 | Cc1cc(Nc2cc(C(F)(F)F)ccn2)nc(-c2cn(C/C=C/c3ccccc3)nn2)c1 [Example 5.35, 4-methyl-6-{1-[(2E)-3-phenylprop-2-en-1-yl]-1H-1,2,3-triazol-4-yl}-N-[4-(trifluoromethyl)pyridin-2-yl]pyridin-2-amine] | 300 nM
17 | Cc1cc(Nc2cc(C(F)(F)F)ccn2)nc(-c2cn(C3C=CCCC3)nn2)c1 (stereo not drawn) [Example 5.36, 6-(1-cyclohex-2-en-1-yl-1H-1,2,3-triazol-4-yl)-4-methyl-N-[4-(trifluoromethyl)pyridin-2-yl]pyridin-2-amine] | 52 nM
18 | CC(C)=CCn1cc(-c2cc(C)cc(Nc3cc(C(F)(F)F)ccn3)n2)nn1 [Example 5.37, 4-methyl-6-[1-(3-methylbut-2-en-1-yl)-1H-1,2,3-triazol-4-yl]-N-[4-(trifluoromethyl)pyridin-2-yl]pyridin-2-amine] | 30.2 nM
19 | C=C(C)Cn1cc(-c2cc(C)cc(Nc3cc(C(F)(F)F)ccn3)n2)nn1 [Example 5.40, 4-methyl-6-[1-(2-methylprop-2-en-1-yl)-1H-1,2,3-triazol-4-yl]-N-[4-(trifluoromethyl)pyridin-2-yl]pyridin-2-amine] | 28.9 nM
20 | Cc1cc(Nc2cc(C(F)(F)F)ccn2)nc(-c2cn(C[C@H](O)CC#N)nn2)c1 [Example 5.44, (3R)-3-hydroxy-4-[4-(4-methyl-6-{[4-(trifluoromethyl)pyridin-2-yl]amino}pyridin-2-yl)-1H-1,2,3-thiazol-1-yl]butanenitrile] | 4.1 nM and 3.18 nM
21 | Cc1cc(Nc2nccc(C(F)(F)F)n2)cc(-c2cn(CCCN)nn2)c1 [Example 5.48, N-{3-[1-(3-aminopropyl)-1H-1,2,3-triazol-4-yl]-5-methylphenyl}-4-(trifluoromethyl)pyrimidin-2-amine] | 32.9 nM
22 | Cc1cc(Nc2nccc(C(F)(F)F)n2)cc(-c2cn(CCOCCO)nn2)c1 [Example 5.49, 2-{2-[4-(3-methyl-5-{[4-(trifluoromethyl)pyrimidin-2-yl]amino}phenyl)-1H-1,2,3-triazol-1-yl]ethoxy}ethanol] | 78.8 nM
23 | Cc1cc(Nc2nccc(C(F)(F)F)n2)cc(-c2cn(CCCN3CCOCC3)nn2)c1 [Example 5.51, N-{3-mcthyl-5-[1-(3-morpholin-4-ylpropyl)-1H-1,2,3-triazol-4-yl]phenyl}-4-(trifluoromethyl)pyrimidin-2-amine] | 177 nM

Continued by falling IC50, values first:

Row | IC50 | SMILES
24 | 24.6 nM | Cc1cc(Nc2nccc(C(F)(F)F)n2)cc(-c2cn(C[C@H](O)CO)nn2)c1 [Example 5.24, (2S)-3-[4-(3-methyl-5-{[4-(trifluoromethyl)pyrimidin-2-yl]amino}phenyl)-1H-1,2,3-triazol-1-yl]propane-1,2-diol]
25 | 24.1 nM | COC(=O)C(C)n1cc(-c2cc(C)cc(Nc3cc(C(F)(F)F)ccn3)n2)nn1 (stereo not drawn) [Example 5.20, methyl 2-[4-(4-methyl-6-{[4-(trifluoromethyl)pyridin-2-yl]amino}pyridin-2-yl)-1H-1,2,3-thiazol-1-yl]propanoate]
26 | 23.5 nM | Cc1cc(Nc2nccc(C(F)(F)F)n2)cc(-c2cn(CC(C)(C)O)nn2)c1 [Example 5.55, 2-methyl-1-[4-(3-methyl-5-{[4-(trifluoromethyl)pyrimidin-2-yl]amino}phenyl)-1H-1,2,3-triazol-1-yl]propan-2-ol]
27 | 23.4 nM | Cc1ccnc(Nc2cc(C)cc(-c3cn(C[C@H](O)CC#N)nn3)n2)c1 [Example 5.14, (3R)-3-hydroxy-4-(4-{4-methyl-6-[(4-methylpyridin-2-yl)amino]pyridin-2-yl}-1H-1,2,3-triazol-1-yl)butanenitrile]
28 | 17.8 nM | C/C=C/Cn1cc(-c2cc(C)cc(Nc3cc(C(F)(F)F)ccn3)n2)nn1 [Example 5.38, 6-{1-[(2E)-but-2-en-1-yl]-1H-1,2,3-triazol-4-yl}-4-methyl-N-[4-(trifluoromethyl)pyridin-2-yl]pyridin-2-amine]
29 | 8.3 nM | Cc1cc(Nc2cc(C(F)(F)F)ccn2)nc(-c2cn(C/C=C/C(=O)O)nn2)c1 [Example 5.45, (2E)-4-[4-(4-methyl-6-{[4-(trifluoromethyl)pyridin-2-yl]amino}pyridin-2-yl)-1H-1,2,3-triazol-1-yl]but-2-enoic acid]
30 | 4.4 nM | Cc1cc(Nc2nccc(C(F)(F)F)n2)cc(-c2cn(Cc3ccc(CC(=O)O)cc3)nn2)c1 [Example 5.2, (4-{[4-(3-methyl-5-{[4-(trifluoromethyl)pyrimidin-2-yl]amino}phenyl)-1H-1,2,3-triazol-1-yl]methyl}phenyl)acetic acid]
31 | 4 nM | Cc1cc(Nc2cc(C(F)(F)F)ccn2)nc(-c2cn(C[C@@H](O)CO)nn2)c1 [Example 5.19, (2R)-3-[4-(4-methyl-6-{[4-(trifluoromethyl)pyridin-2-yl]amino}pyridin-2-yl)-1H-1,2,3-triazol-1-yl]propane-1,2-diol]
32 | 3.3 nM | Cc1cc(Nc2nccc(C(F)(F)F)n2)cc(-c2cn(Cc3ccc(C(=O)O)cc3)nn2)c1 [Example 5.21, 4-{[4-(3-methyl-5-{[4-(trifluoromethyl)pyrimidin-2-yl]amino}phenyl)-1H-1,2,3-triazol-1-yl]methyl}benzoic acid]
33 | 3.3 nM | Cc1cc(Nc2cc(C(F)(F)F)ccn2)nc(-c2cn(Cc3ccc(C(=O)O)cc3)nn2)c1 [Example 5.42, 4-{[4-(4-methyl-6-{[4-(trifluoromethyl)pyridin-2-yl]amino}pyridin-2-yl)-1H-1,2,3-triazol-1-yl]methyl}benzoic acid]
